Each compound was assayed on RS411 cells (assay: Cell Viability CTG Assay (CellTiter Glo) in RS411 cells). Conditions: Homo sapiens, RS4-11, 24 h, duration 1 day.
Assay type: cell-based
Summary of the method: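 RS411 cells at 1000 cells/well were exposed to compound (top final 10 μM, 3-fold, 11 doses; 0.2% DMSO) at 37 °C, 5% CO2 for 1-4 days. Viability was read by CellTiter Glo luminescence after 10 min at RT. IC50 is reported as letter-code bins.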

Row | SMILES | IC50 [µM]
1 | CN1[C@@H](C(=O)N[C@H]2CC[C@H](CN3CCC(C#Cc4ccc5c(c4)n(C)c(=O)n5C4CCC(=O)NC4=O)CC3)CC2)[C@H](c2cccc(Cl)c2F)[C@]2(C(=O)Nc3cc(Cl)ccc32)C12CCC(C)(C)CC2 (some centres unmarked) [I-123] | < 0.05
2 | CN1[C@@H](C(=O)N[C@H]2C[C@@](C)(O)C2)[C@H](c2cccc(Cl)c2F)[C@]2(C(=O)N(CCCCCCCC#Cc3ccc4c(c3)n(C)c(=O)n4C3CCC(=O)NC3=O)c3cc(Cl)ccc32)C12CCCCC2 (some centres unmarked) [I-124] | > 1
3 | Cn1c(=O)n(C2CCC(=O)NC2=O)c2ccc(CCCCCNC[C@H]3CC[C@H](NC(=O)[C@@H]4NC5(CCCCC5)[C@@]5(C(=O)Nc6cc(Cl)ccc65)[C@H]4c4cccc(Cl)c4F)CC3)cc21 (some centres unmarked) [I-125] | < 0.05
4 | Cn1c(=O)n(C2CCC(=O)NC2=O)c2ccc(CCCCCNCc3ccc(NC(=O)[C@@H]4NC5(CCCCC5)[C@@]5(C(=O)Nc6cc(Cl)ccc65)[C@H]4c4cccc(Cl)c4F)cc3)cc21 (some centres unmarked) [I-126] | < 0.05
5 | O=C1CCC(N2Cc3c(C#CC4CCN(C(=O)[C@H]5CC[C@H](NC(=O)[C@@H]6NC7(CCCCC7)[C@@]7(C(=O)Nc8cc(Cl)ccc87)[C@H]6c6cccc(Cl)c6F)CC5)CC4)cccc3C2=O)C(=O)N1 (some centres unmarked) [I-134] | < 0.05
6 | CC(C)(C)C[C@@H]1N[C@@H](C(=O)N[C@H]2CC[C@H](CN3CCC(C#Cc4ccn5c(N6CCC(=O)NC6=O)cnc5c4)CC3)CC2)[C@H](c2cccc(Cl)c2F)[C@@]1(C#N)c1ccc(Cl)cc1F [I-135] | > 1
7 | Cn1c(=O)n(C2CCC(=O)NC2=O)c2ccc(C#CCCN3CCN(C(=O)[C@H]4CC[C@H](NC(=O)[C@@H]5NC6(CCCCC6)[C@@]6(C(=O)Nc7cc(Cl)ccc76)[C@H]5c5cccc(Cl)c5F)CC4)CC3)cc21 (some centres unmarked) [I-136] | < 0.05
8 | Cn1c(=O)n(C2CCC(=O)NC2=O)c2cccc(CN3CCC(OC4CCN(Cc5ccc(NC(=O)[C@@H]6NC7(CCCCC7)[C@@]7(C(=O)Nc8cc(Cl)ccc87)[C@H]6c6cccc(Cl)c6F)cc5)CC4)CC3)c21 (some centres unmarked) [I-139] | < 0.05
9 | Cn1c(=O)n(C2CCC(=O)NC2=O)c2ccc(CCCN3CCN(C[C@H]4CC[C@H](NC(=O)[C@@H]5NC6(CCC(C)(C)CC6)[C@@]6(C(=O)Nc7cc(Cl)ccc76)[C@H]5c5ccnc(Cl)c5F)CC4)CC3)cc21 (some centres unmarked) [I-147] | < 0.05
10 | Cn1c(=O)n(C2CCC(=O)NC2=O)c2cccc(C#CC3CCN(C[C@H]4CC[C@H](NC(=O)[C@@H]5NC6(CCC(C)(C)CC6)[C@@]6(C(=O)Nc7cc(Cl)ccc76)[C@H]5c5ccnc(Cl)c5F)CC4)CC3)c21 (some centres unmarked) [I-148] | < 0.05
11 | O=C1CCN(c2cnc3c(C#CC4CCN(C[C@H]5CC[C@H](NC(=O)[C@@H]6NC7(CCCCC7)[C@@]7(C(=O)Nc8cc(Cl)ccc87)[C@H]6c6cccc(Cl)c6F)CC5)CC4)cccn23)C(=O)N1 [I-150] | < 0.05
12 | Cn1c(=O)n(C2CCC(=O)NC2=O)c2ccc(CCN3CC4(CCN(C[C@H]5CC[C@H](NC(=O)[C@@H]6NC7(CCCCC7)[C@@]7(C(=O)Nc8cc(Cl)ccc87)[C@H]6c6cccc(Cl)c6F)CC5)CC4)C3)cc21 (some centres unmarked) [I-154] | < 0.05
13 | CN1[C@@H](CN[C@H]2CC[C@H](C(=O)N3CCC(CCc4ccc5c(c4)n(C)c(=O)n5C4CCC(=O)NC4=O)CC3)CC2)[C@H](c2cccc(Cl)c2F)[C@]2(C(=O)Nc3cc(Cl)ccc32)C12CCCCC2 (some centres unmarked) [I-156] | > 1
14 | CN1[C@@H](C(=O)N[C@H]2CC[C@H](CN3CCC4(CC3)CN(CCc3ccc5c(c3)n(C)c(=O)n5C3CCC(=O)NC3=O)C4)CC2)[C@H](c2cccc(Cl)c2F)[C@]2(C(=O)Nc3cc(Cl)ccc32)C12CCCCC2 (some centres unmarked) [I-158] | < 0.05
15 | Cn1c(=O)n(C2CCC(=O)NC2=O)c2cccc(CCN3CC4(CCN(C[C@H]5CC[C@H](NC(=O)[C@@H]6NC7(CCCCC7)[C@@]7(C(=O)Nc8cc(Cl)ccc87)[C@H]6c6cccc(Cl)c6F)CC5)CC4)C3)c21 (some centres unmarked) [I-159] | < 0.05

Next, values leading:

Row | IC50 [µM] | SMILES
16 | > 1 | C#CCCCCCCCC1N(c2ccc(C(=O)NC)cc2OC)C(=O)[C@H]2[C@H](c3cccc(Cl)c3F)[C@@](C#N)(c3ccc(Cl)cc3F)[C@H](CC(C)(C)C)N12 (stereo partly drawn) [I-127, 4-[(5S,6R,7S,7aR)-7-(3-chloro-2-fluoro-phenyl)-6-(4-chloro-2-fluoro-phenyl)-6-cyano-5-(2,2-dimethylpropyl)-3-non-8-ynyl-1-oxo-3,5,7,7a-tetrahydropyrrolo[1,2-c]imidazol-2-yl]-3-methoxy-N-methyl-benzamide]
17 | > 1 | C#CCCCCCCCN1C(=O)[C@@]2(c3ccc(Cl)cc31)[C@@H](c1cccc(Cl)c1F)[C@H](C(=O)N[C@H]1C[C@@](C)(O)C1)N(C)C21CCCCC1 [I-128, (3′R,4'S,5′R)-6″-chloro-4′-(3-chloro-2-fluorophenyl)-N-((1s,3S)-3-hydroxy-3-methylcyclobutyl)-1′-methyl-1″-(non-8-yn-1-yl)-2″-oxodispiro[cyclohexane-1,2′-pyrrolidine-3′,3″-indoline]-5′-carboxamide]
18 | > 1 | C#CCCCCCCCN1C(=O)[C@@]2(c3ccc(Cl)cc31)[C@@H](c1cccc(Cl)c1F)[C@H](C(=O)O)N(C)C21CCCCC1 [I-129, (3′R,4'S,5′R)-6″-chloro-4′-(3-chloro-2-fluorophenyl)-1′-methyl-1″-(non-8-yn-1-yl)-2″-oxodispiro[cyclohexane-1,2′-pyrrolidine-3′,3″-indoline]-5′-carboxylic acid]
19 | < 0.05 | CN1[C@@H](C(=O)NC23CCC(C(=O)N4CCC(C#Cc5ccc6c(c5)n(C)c(=O)n6C5CCC(=O)NC5=O)CC4)(CC2)CC3)[C@H](c2cccc(Cl)c2F)[C@]2(C(=O)Nc3cc(Cl)ccc32)C12CCCCC2 (stereo partly drawn) [I-130, (3′R,4'S,5′R)-6″-chloro-4′-(3-chloro-2-fluorophenyl)-N-(4-(4-((1-(2,6-dioxopiperidin-3-yl)-3-methyl-2-oxo-2,3-dihydro-1H-benzo[d]imidazol-5-yl)ethynyl)piperidine-1-carbonyl)bicyclo[2.2.2]octan-1-yl)-1′-methyl-2″-oxodispiro[cyclohexane-1,2′-pyrrolidine-3′,3″-indoline]-5′-carboxamide]
20 | 0.05 to 0.1 | CCN1[C@@H](C(=O)NC23CCC(CN(C)CCCCCc4ccc5c(c4)n(C)c(=O)n5C4CCC(=O)NC4=O)(CC2)CC3)[C@H](c2cccc(Cl)c2F)[C@]2(C(=O)Nc3cc(Cl)ccc32)C12CCCCC2 (stereo partly drawn) [I-131, (3′R,4'S,5′R)-6″-chloro-4′-(3-chloro-2-fluorophenyl)-N-(4-(((5-(1-(2,6-dioxopiperidin-3-yl)-3-methyl-2-oxo-2,3-dihydro-1H-benzo[d]imidazol-5-yl)pentyl)(methyl)amino)methyl)bicyclo[2.2.2]octan-1-yl)-1′-ethyl-2″-oxodispiro[cyclohexane-1,2′-pyrrolidine-3′,3″-indoline]-5′-carboxamide]
21 | < 0.05 | Cn1c(=O)n(C2CCC(=O)NC2=O)c2cccc(C3CCN(C(=O)[C@H]4CC[C@H](NC(=O)[C@@H]5NC6(CCC(C)(C)CC6)[C@@]6(C(=O)Nc7cc(Cl)ccc76)[C@H]5c5cccc(Cl)c5F)CC4)CC3)c21 (some centres unmarked) [I-137]
22 | > 1 | Cn1c(=O)n(C2CCC(=O)NC2=O)c2ccc(CCC3CCN(CCNC(=O)[C@@H]4NC5(CCCCC5)[C@@]5(C(=O)Nc6cc(Cl)ccc65)[C@H]4c4cccc(Cl)c4F)CC3)cc21 (some centres unmarked) [I-138]
23 | 0.5 to 1 | Cn1c(=O)n(C2CCC(=O)NC2=O)c2cccc(C#CC3CCN(C[C@H]4CC[C@H](CNC(=O)[C@@H]5NC6(CCCCC6)[C@@]6(C(=O)Nc7cc(Cl)ccc76)[C@H]5c5cccc(Cl)c5F)CC4)CC3)c21 (some centres unmarked) [I-140]
24 | > 1 | Cn1c(=O)n(C2CCC(=O)NC2=O)c2cccc(CCCN3CCN(CCCNC(=O)[C@@H]4NC5(CCCCC5)[C@@]5(C(=O)Nc6cc(Cl)ccc65)[C@H]4c4cccc(Cl)c4F)CC3)c21 (some centres unmarked) [I-141]
25 | 0.05 to 0.1 | O=C1CCN(c2cncc3cc(C#CC4CCN(C[C@H]5CC[C@H](NC(=O)[C@@H]6NC7(CCCCC7)[C@@]7(C(=O)Nc8cc(Cl)ccc87)[C@H]6c6cccc(Cl)c6F)CC5)CC4)ccc23)C(=O)N1 [I-142]
26 | < 0.05 | O=C1CCC(N2Cc3c(C#CC4CCN(C(=O)C56CCC(NC(=O)[C@@H]7NC8(CCCCC8)[C@@]8(C(=O)Nc9cc(Cl)ccc98)[C@H]7c7cccc(Cl)c7F)(CC5)CC6)CC4)cccc3C2=O)C(=O)N1 (some centres unmarked) [I-143]
27 | 0.05 to 0.1 | O=C1CCN(c2cnc3cc(C4CCN(C(=O)c5ccc(NC(=O)[C@@H]6NC7(CCCCC7)[C@@]7(C(=O)Nc8cc(Cl)ccc87)[C@H]6c6cccc(Cl)c6F)cc5)CC4)ccn23)C(=O)N1 [I-144]
28 | 0.1 to 0.5 | O=C1CCN(c2cncc3c(C#CC4CCN(C[C@H]5CC[C@H](NC(=O)[C@@H]6NC7(CCCCC7)[C@@]7(C(=O)Nc8cc(Cl)ccc87)[C@H]6c6cccc(Cl)c6F)CC5)CC4)cccc23)C(=O)N1 [I-146]
29 | < 0.05 | Cn1c(=O)n(C2CCC(=O)NC2=O)c2ccc(C#CC3CCN(C[C@H]4CC[C@H](NC(=O)[C@@H]5NC6(CCC(C)(C)CC6)[C@@]6(C(=O)Nc7cc(Cl)ccc76)[C@H]5c5ccnc(Cl)c5F)CC4)CC3)cc21 (some centres unmarked) [I-149]
30 | 0.1 to 0.5 | Cn1c(=O)n(C2CCC(=O)NC2=O)c2ccc(CCCCCNC(=O)[C@H]3CC[C@H](NC(=O)[C@@H]4NC5(CCC(C)(C)CC5)[C@@]5(C(=O)Nc6cc(Cl)ccc65)[C@H]4c4ccnc(Cl)c4F)CC3)cc21 (some centres unmarked) [I-151]
31 | 0.5 to 1 | Cn1c(=O)n(C2CCC(=O)NC2=O)c2ccc(C(=O)CC3CCN(C[C@H]4CC[C@H](NC(=O)[C@@H]5NC6(CCOCC6)[C@@]6(C(=O)Nc7cc(Cl)ccc76)[C@H]5c5cccc(Cl)c5F)CC4)CC3)cc21 (some centres unmarked) [I-152]
32 | < 0.05 | Cn1c(=O)n(C2CCC(=O)NC2=O)c2ccc(C#CC3CCN(C[C@H]4CC[C@H](NC(=O)[C@@H]5NC6(CCOCC6)[C@@]6(C(=O)Nc7cc(Cl)ccc76)[C@H]5c5cccc(Cl)c5F)CC4)CC3)cc21 (some centres unmarked) [I-153]
33 | < 0.05 | CC1(C)CCC2(CC1)N[C@@H](C(=O)N[C@H]1CC[C@H](CN3CCC(C#Cc4cccn5c(N6CCC(=O)NC6=O)cnc45)CC3)CC1)[C@H](c1ccnc(Cl)c1F)[C@]21C(=O)Nc2cc(Cl)ccc21 [I-155]
34 | < 0.05 | Cn1c(=O)n(C2CCC(=O)NC2=O)c2ccc(CCCCCNC(=O)[C@@H]3CCC(NC(=O)[C@@H]4NC5(CCC(C)(C)CC5)[C@@]5(C(=O)Nc6cc(Cl)ccc65)[C@H]4c4ccnc(Cl)c4F)CO3)cc21 (some centres unmarked) [I-157]
35 | < 0.05 | CN(CCCCCc1ccc2c(c1)n(C)c(=O)n2C1CCC(=O)NC1=O)Cc1ccc(NC(=O)[C@@H]2NC3(CCCCC3)[C@@]3(C(=O)Nc4cc(Cl)ccc43)[C@H]2c2cccc(Cl)c2F)c(F)c1 (some centres unmarked) [I-161]

From patent US11932624B2, “MDM2 degraders and uses thereof” (Kymera Therapeutics, Inc., priority 2020, dated 2024)
